# From publication PMC6199744, “Development of Chemical Proteomics for the Folateome and Analysis of the Kinetoplastid Folateome” (ACS Infectious Diseases, 2018)
# Like-named read-outs stand apart in the source and are kept apart here.
# Assays:
# Format in all cases: binding
# [1] = biological target: T1, HeLa cell extract proteins (Homo sapiens, UniProt Q6YHU6)
# T1 construct: endogenous in cells; host or cells: HeLa cell extract
# [2] = biological target: T2, HeLa cell extract proteins (Homo sapiens, UniProt P60709)
# T2 construct: endogenous in cells; host or cells: HeLa cell extract
# [3] = biological target: T3, HeLa cell extract proteins (Homo sapiens, UniProt P17858)
# T3 construct: endogenous in cells; host or cells: HeLa cell extract
# T3 sequence (P17858 1-780): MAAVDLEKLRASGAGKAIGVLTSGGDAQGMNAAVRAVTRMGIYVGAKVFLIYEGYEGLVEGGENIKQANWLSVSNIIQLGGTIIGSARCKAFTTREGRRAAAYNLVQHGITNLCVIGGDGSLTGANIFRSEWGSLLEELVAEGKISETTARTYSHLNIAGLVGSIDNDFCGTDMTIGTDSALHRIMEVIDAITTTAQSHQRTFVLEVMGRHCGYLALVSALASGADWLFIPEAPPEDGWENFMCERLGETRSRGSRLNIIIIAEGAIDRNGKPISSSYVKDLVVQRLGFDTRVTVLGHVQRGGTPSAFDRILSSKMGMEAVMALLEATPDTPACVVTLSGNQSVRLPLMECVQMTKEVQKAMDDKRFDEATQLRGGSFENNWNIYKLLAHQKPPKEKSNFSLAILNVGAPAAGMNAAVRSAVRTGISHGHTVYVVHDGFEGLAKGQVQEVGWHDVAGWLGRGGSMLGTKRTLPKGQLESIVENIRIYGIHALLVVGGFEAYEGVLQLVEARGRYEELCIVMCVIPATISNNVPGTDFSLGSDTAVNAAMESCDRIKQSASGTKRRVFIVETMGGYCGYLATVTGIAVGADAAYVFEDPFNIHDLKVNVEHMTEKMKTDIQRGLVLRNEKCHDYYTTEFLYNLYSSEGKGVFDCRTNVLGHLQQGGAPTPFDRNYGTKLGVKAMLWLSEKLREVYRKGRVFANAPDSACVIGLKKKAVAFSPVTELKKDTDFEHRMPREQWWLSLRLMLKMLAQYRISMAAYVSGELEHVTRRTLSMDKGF
# [4] = biological target: T4, HeLa cell extract proteins (Homo sapiens, UniProt Q5T4S7)
# T4 construct: endogenous in cells; host or cells: HeLa cell extract
# [5] = biological target: T5, HeLa cell extract proteins (Homo sapiens, UniProt P49915)
# T5 construct: endogenous in cells; host or cells: HeLa cell extract
# [6] = biological target: T6, HeLa cell extract proteins (Homo sapiens, UniProt Q709F0)
# T6 construct: endogenous in cells; host or cells: HeLa cell extract
# T6 sequence (Q709F0 1-780): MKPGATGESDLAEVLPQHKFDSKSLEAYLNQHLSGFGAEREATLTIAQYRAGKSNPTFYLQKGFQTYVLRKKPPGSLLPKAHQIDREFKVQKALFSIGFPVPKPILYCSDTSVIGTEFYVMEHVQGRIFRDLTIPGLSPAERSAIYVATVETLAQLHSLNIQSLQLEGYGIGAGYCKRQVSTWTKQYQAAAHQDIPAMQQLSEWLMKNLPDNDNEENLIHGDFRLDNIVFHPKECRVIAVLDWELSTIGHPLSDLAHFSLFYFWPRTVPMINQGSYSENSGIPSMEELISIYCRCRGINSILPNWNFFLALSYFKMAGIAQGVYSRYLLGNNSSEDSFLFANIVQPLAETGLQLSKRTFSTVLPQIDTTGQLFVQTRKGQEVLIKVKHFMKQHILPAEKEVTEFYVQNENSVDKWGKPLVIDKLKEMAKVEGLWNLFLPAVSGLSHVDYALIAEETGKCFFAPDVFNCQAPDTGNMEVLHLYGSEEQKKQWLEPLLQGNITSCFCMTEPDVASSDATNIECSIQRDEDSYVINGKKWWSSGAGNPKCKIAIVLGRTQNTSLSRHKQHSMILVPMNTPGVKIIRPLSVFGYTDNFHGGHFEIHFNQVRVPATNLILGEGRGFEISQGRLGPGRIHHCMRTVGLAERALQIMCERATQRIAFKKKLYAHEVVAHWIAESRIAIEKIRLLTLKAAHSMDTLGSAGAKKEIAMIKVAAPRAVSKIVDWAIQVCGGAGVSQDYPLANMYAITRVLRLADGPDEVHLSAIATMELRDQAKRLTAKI
# [7] = biological target: T7, HeLa cell extract proteins (Homo sapiens, UniProt P55010)
# T7 construct: endogenous in cells; host or cells: HeLa cell extract
# [8] = biological target: T8, HeLa cell extract proteins (Homo sapiens, UniProt Q96EY1)
# T8 construct: endogenous in cells; host or cells: HeLa cell extract
# T8 sequence (Q96EY1 1-480): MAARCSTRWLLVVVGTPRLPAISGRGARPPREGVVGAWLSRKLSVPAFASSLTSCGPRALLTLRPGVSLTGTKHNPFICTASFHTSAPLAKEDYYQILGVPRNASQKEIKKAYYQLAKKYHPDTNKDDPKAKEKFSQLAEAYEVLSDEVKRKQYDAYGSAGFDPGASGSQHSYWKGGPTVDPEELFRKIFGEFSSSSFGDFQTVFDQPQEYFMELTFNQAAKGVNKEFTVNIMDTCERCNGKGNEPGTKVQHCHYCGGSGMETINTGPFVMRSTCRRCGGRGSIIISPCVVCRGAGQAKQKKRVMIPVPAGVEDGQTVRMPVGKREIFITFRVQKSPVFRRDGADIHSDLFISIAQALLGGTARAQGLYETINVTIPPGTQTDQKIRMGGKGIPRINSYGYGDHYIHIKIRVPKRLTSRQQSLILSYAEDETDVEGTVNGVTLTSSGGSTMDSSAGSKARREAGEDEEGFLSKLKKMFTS
# [9] = biological target: T9, HeLa cell extract proteins (Homo sapiens, UniProt Q96CW5)
# T9 construct: endogenous in cells; host or cells: HeLa cell extract
# T9 sequence (Q96CW5 whole entry): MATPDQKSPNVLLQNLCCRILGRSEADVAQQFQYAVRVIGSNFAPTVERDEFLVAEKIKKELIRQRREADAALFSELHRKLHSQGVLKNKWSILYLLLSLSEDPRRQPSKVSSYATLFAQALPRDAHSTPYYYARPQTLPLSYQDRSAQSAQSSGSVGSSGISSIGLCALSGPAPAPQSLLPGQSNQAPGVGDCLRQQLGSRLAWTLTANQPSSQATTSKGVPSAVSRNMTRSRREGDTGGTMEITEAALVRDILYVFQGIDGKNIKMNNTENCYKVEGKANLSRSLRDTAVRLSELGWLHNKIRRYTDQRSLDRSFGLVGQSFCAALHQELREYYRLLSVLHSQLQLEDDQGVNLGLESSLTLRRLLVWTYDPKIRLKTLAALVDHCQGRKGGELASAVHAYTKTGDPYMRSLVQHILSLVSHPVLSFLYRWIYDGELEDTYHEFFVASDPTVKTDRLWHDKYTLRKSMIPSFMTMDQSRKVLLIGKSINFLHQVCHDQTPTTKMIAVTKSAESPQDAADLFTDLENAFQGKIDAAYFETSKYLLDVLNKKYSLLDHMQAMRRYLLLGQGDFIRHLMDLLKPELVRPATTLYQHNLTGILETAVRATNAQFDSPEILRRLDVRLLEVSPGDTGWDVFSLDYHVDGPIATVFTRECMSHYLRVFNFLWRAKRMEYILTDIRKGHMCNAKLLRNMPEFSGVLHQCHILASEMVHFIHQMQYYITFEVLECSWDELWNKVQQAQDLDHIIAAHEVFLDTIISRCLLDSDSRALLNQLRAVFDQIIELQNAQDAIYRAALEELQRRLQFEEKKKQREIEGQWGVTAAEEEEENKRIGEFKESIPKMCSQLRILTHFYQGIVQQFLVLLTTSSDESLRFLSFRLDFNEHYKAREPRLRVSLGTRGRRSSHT
# T7 sequence (P55010 whole entry): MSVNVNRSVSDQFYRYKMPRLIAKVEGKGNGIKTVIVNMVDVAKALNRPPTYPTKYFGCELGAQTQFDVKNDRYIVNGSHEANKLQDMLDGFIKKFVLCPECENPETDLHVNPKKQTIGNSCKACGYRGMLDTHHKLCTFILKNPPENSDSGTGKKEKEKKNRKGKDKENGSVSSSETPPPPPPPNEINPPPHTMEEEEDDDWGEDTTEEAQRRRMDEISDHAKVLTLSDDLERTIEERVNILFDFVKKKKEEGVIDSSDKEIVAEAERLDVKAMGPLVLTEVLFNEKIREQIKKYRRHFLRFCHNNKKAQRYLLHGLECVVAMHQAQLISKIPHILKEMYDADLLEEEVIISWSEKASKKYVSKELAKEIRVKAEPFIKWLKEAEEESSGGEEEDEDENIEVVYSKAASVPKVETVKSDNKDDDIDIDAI
# T1 sequence (Q6YHU6 whole entry): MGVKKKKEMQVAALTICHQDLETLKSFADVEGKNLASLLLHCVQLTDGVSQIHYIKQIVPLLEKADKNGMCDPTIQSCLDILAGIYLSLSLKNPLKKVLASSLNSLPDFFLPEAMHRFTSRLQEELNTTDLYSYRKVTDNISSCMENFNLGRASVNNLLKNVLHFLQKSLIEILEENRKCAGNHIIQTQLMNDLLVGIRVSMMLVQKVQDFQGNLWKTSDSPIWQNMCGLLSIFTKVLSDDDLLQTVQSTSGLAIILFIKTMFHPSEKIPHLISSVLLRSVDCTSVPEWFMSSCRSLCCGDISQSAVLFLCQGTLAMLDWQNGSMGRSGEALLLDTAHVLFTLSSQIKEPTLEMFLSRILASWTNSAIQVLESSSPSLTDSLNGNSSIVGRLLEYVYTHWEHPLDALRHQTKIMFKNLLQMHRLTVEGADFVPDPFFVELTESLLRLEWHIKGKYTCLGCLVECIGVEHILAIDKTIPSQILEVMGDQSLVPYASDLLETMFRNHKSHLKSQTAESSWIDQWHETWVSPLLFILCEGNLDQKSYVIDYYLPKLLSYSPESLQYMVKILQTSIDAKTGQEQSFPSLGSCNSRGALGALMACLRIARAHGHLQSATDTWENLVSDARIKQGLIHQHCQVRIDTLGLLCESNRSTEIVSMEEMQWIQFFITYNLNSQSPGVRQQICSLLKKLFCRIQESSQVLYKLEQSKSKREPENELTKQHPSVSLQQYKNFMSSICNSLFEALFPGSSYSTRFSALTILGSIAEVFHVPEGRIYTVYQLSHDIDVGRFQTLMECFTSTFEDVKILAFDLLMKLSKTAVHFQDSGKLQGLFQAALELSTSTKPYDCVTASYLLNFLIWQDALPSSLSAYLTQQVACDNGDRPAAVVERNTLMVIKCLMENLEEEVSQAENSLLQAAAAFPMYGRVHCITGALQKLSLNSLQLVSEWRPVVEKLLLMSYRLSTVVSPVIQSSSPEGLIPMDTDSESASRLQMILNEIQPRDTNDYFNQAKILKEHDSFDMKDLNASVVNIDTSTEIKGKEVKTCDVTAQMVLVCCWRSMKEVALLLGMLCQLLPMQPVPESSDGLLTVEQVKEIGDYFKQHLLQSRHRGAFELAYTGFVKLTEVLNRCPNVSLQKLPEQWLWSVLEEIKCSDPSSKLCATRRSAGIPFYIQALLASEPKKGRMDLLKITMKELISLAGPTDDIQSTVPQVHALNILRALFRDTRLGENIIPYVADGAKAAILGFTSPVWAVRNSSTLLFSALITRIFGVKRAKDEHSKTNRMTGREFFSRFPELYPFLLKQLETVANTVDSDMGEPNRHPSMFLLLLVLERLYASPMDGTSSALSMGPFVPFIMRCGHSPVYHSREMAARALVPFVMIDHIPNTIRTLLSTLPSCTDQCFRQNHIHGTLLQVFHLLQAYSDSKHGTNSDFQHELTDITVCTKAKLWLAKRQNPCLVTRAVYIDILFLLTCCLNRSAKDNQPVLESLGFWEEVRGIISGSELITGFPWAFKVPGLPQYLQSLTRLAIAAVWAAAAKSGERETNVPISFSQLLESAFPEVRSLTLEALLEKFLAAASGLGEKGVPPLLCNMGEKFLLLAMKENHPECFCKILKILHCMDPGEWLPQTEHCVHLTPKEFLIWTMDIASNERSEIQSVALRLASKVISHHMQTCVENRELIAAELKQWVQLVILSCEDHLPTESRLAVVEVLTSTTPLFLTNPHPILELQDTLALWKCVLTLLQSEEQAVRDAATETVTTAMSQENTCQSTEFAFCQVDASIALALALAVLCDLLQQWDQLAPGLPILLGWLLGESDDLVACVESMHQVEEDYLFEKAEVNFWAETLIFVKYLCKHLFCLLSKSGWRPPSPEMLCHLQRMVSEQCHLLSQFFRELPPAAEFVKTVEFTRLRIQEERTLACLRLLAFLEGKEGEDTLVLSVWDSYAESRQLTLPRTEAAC
# T5 sequence (P49915 whole entry): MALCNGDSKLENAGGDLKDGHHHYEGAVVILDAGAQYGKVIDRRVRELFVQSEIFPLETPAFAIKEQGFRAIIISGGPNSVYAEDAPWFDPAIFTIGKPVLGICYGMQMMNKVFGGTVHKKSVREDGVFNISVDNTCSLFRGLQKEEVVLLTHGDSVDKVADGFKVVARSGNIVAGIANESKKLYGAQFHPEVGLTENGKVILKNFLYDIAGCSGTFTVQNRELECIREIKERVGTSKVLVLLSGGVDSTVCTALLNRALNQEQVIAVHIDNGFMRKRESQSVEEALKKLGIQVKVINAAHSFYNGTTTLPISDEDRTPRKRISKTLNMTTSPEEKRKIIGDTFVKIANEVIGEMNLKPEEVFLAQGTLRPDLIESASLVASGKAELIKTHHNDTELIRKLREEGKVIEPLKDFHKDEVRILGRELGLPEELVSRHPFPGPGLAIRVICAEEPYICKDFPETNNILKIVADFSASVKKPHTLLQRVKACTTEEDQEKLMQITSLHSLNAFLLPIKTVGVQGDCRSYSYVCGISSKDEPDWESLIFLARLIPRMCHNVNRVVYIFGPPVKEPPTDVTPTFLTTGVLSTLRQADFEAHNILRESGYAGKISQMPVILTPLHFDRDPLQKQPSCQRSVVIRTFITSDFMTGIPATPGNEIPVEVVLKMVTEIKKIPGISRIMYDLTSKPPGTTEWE
Compound,"fold changes relative to vehicle control ([1]; HeLa, captured protein THADA)","fold changes relative to vehicle control ([2]; HeLa, protein ACTB)","fold changes relative to vehicle control ([3]; HeLa, protein PFKL)","fold changes relative to vehicle control ([4]; protein UBR4, HeLa)","fold changes relative to vehicle control ([5]; HeLa, protein GMPS)","fold changes relative to vehicle control ([6]; HeLa, protein ACAD11)","fold changes relative to vehicle control ([7]; HeLa, captured protein EIF5)","fold changes relative to vehicle control ([8]; protein DNAJA3, HeLa)","fold changes relative to vehicle control ([9]; HeLa, protein TUBGCP3)",fold changes relative to vehicle control [7],"fold changes relative to vehicle control ([1]; captured protein THADA, HeLa)","fold changes relative to vehicle control ([2]; protein ACTB, HeLa)","fold changes relative to vehicle control ([3]; captured protein PFKL, HeLa)","fold changes relative to vehicle control ([5]; protein GMPS, HeLa)","fold changes relative to vehicle control ([6]; captured protein ACAD11, HeLa)","fold changes relative to vehicle control ([8]; captured protein DNAJA3, HeLa)","fold changes relative to vehicle control ([9]; captured protein TUBGCP3, HeLa)",further results
"Nc1nc2c(c(=O)[nH]1)N(C=O)C(CNc1ccc(C(=O)N[C@@H](CCC(=O)O)C(=O)O)cc1)CN2 (stereo partly drawn) [LEU, leucovorin]",1.06,1.13,0.96,1.02,0.93,1.12,0.98,0.8,0.87,–,–,–,–,–,–,–,–,–
"Nc1nc2[nH]cc(CCc3ccc(C(=O)N[C@@H](CCC(=O)O)C(=O)O)cc3)c2c(=O)[nH]1 [PTX, pemetrexed]",–,–,–,–,–,–,–,–,–,1.05,–,–,–,–,–,–,–,fold changes relative to vehicle control [1]: 0.98; fold changes relative to vehicle control [2]: 1.18; fold changes relative to vehicle control [3]: 0.89; fold changes relative to vehicle control [4]: 0.94; fold changes relative to vehicle control [5]: 0.99; fold changes relative to vehicle control [6]: 0.98; fold changes relative to vehicle control [8]: 0.84; fold changes relative to vehicle control [9]: 1.06
CCCCCCOc1ccc(Cc2cnc(N)nc2N)cc1 [compound 1],–,–,–,1.14,–,–,–,–,–,1.24 fold,1.06,1.25,0.92,1.37,1.02,0.84,0.94,–
CCCCCCOc1cccc(Cc2cnc(N)nc2N)c1 [compound 2],–,–,–,1.19,–,–,–,–,–,–,1.16,1.5,0.96,1.94,0.77,1.16,1.05,"fold changes relative to vehicle control ([7]; HeLa, protein EIF5 (EUKARYOTIC TRANSLATION INITIATION FACTOR 5.)): 2.16 fold"
Nc1nc2cccc(-c3ccccc3)c2n1Cc1ccc(Cl)c(Cl)c1 [compound 3],–,–,–,1.08,–,–,–,–,–,0.91 fold,1.09,1.07,1.07,0.96,1.07,1.05,1.02,–
NCCOCCOCC(=O)Nc1nc2ncc(CNc3ccc(C(=O)NC(CCC(=O)O)C(=O)O)cc3)nc2c(=O)[nH]1 (stereo not drawn) [compound 6],1.11,1.39,0.98,0.42,1.24,0.95,1.64,1.2,1,–,–,–,–,–,–,–,–,–
NCCCNc1ccc(C(=O)NC(CCC(=O)O)C(=O)O)cc1 (stereo not drawn) [compound 7],1.12,1.04,1.07,1.02,1.11,1.05,0.94,1.06,1.01,–,–,–,–,–,–,–,–,–
